Assay results from patent US20110301153A1, “METHODS OF TREATING CANCER” (The Trustees of the University of Pennsylvania, priority 2008, published 2011).

How the values were obtained:
Type in all cases: cell-based, human
[1] = test system: SF188 cells stably expressing Bcl-xL; assay: Akt/PI3K inhibitor treatment, media metabolite analysis (glucose, lactate, glutamine, ammonia); settings: 8 hours, medium analysed
Method: SF188 cells stably expressing Bcl-xL were treated with AktiVIII at doses ranging from 0-20 μM. Medium was collected and analyzed for glucose, lactate, glutamine, and ammonia. The rates shown were calculated from the difference in metabolite concentration between the medium at the time point shown and fresh medium. The data points presented are the mean±SD of triplicate samples.
SF188 cells stably expressing Bcl-xL were plated at a density of 4×10^5 cells in E-well plate format, and incubated in DMEM with 10% FCS for 36 hours prior to treatment with AKT inhibitor VIII (Calbiochem) at 0, 0.1, 2, 5, and 10 μM concentrations in triplicate. After 8 hours, medium samples were collected for metabolite analysis, and viable cells were counted using trypan blue exclusion.
Media glucose, glutamine, lactate, and ammonia concentrations were analyzed using the Nova Biomedical Flex Analyzer (Waltham, Mass.).

[2] = test system: shMYC SF188 cells; assay: AOA treatment of SF188 cells transduced with MYC-shRNA, viability by trypan blue dye exclusion; settings: 500 μM AOA, 24 h, P<0.01
Method: (§1) (A) Myc-suppressed SF188 cells are resistant to glutamine starvation. shMYC and shCTRL SF188 cells, described in FIG. 3B, were allowed to plate in the presence of glutamine and then cultured in the absence of glutamine. Cell viability was determined at the time points shown by trypan blue dye exclusion. The data points shown represent the mean±SD of triplicate samples. (B) Myc-suppressed SF188 cells are resistant to an inhibitor of glutaminolysis. shMYC and shCTRL SF188 cells, described in FIG. 3B, were allowed to plate in the presence of glutamine and then were treated with 500 μM aminooxyacetate (AOA). Cell viability was determined at the time points shown by trypan blue dye exclusion. AOA-treated shCTRL cells were also treated with 7 mM dimethyl α-ketoglutarate (AOA+α-ketoglutarate). The data points shown represent the mean±SD of triplicate samples.
(§2) Lentivirus was packaged in 293T cells co-transfected with pLKO.1-puro c-Myc or Luciferase-control shRNA plasmid (Sigma) in addition to the pVSV-G and pCMVdelta8.2 helper plasmids using lipofectamine 2000 (Sigma). […]
(§3) SF188 cells were treated with AOA (Sigma) at doses ranging from 500 nM-500 μM and viability was assessed 24 h post-treatment. […] After allowing to plate overnight, cells were treated with 500 μM for 24 h, and then viability was assessed using trypan blue dye exclusion.

[3] = test system: SF188 cells; assay: AOA dose-finding, viability of SF188 cells; settings: doses 500 nM-500 μM, viability 24 h post-treatment
Method: SF188 cells (UC Brain Tumor Research Center, SF, CA) and SV40-immortalized MEF stably transfected with MycER (a gift from Drs. A T Tikhonenko and R. A. Amaravadi of University of Pennsylvania, Philadelphia, Pa.) were cultured in DMEM (Invitrogen), 10% FBS (Gemini Biosystems), 100 units/ml Penicillin, 100 ug/ml Streptomycin, 25 mM glucose, and 6 mM L-glutamine at 37° C. in a 5% CO2 incubator. To avoid depleting […], all experiments were carried out under subconfluent conditions. For glutamine starvation experiments, DMEM without glutamine (Invitrogen) was supplemented with 10% dialyzed FBS (Gemini Biosystems). For metabolic tracing experiments, DMEM without glutamine and with 10% dialyzed FBS was supplemented with either L-glutamine that was unenriched or with L-[U-^13C5]glutamine (Isotec), [U-^14C5]glutamine (GE Amersham), and [γ-^15N]glutamine (Cambridge Isotope Laboratories). DMEM without glucose (Sigma) was supplemented with [U-^14C6]glucose (Sigma). To activate MycER, cells were incubated with 200 nM 4-hydroxytamoxifen for 24 hours.
as §3, with “post-treatment. Moreadith R W & Lehninger A L (1984) J. Biol. Chem. 259(10):6215-6221.” for “post-treatment.”

[4] = test system: shCTRL SF188 cells; assay: AOA treatment of SF188 cells transduced with control shRNA, viability by trypan blue dye exclusion; settings: P<0.01
Method: as §1, §2, §3

[5] = test system: SF188 cells; assay: Glutamine starvation of SF188 cells with alpha-ketoglutarate replacement, viability by trypan blue dye exclusion; settings: glutamine replaced with 7 mM dimethyl α-ketoglutarate, 25 mM glucose in medium
Method: FIG. 1 concerns glutamine catabolism in the human glioma line SF188. (A) Protein synthesis is a minor fate of glutamine carbon. SF188 cells were cultured in medium supplemented with 0.01% [^14C-U5]glutamine relative to unenriched glutamine for 4 h. [^14C-U5]glutamine in SSA precipitated protein (striped bar) and total glutamine consumed from the medium (grey bar) are presented as the mean±standard deviation (SD) of four independent experiments. (B) The requirement for glutamine can be satisfied by alpha-ketoglutarate. SF188 cells were allowed to plate in complete medium and then cultured in either glutamine-depleted medium (−glutamine), complete medium (+glutamine), or glutamine-depleted medium supplemented with 7 mM dimethyl α-ketoglutarate (−glutamine +α-ketoglutarate). Cell viability was determined at the time points shown by trypan blue dye exclusion. The data presented are the mean±SD of triplicate samples. Representative data from one of three independent experiments are shown.
SF188 cells (UC Brain Tumor Research Center, SF, CA) and SV40-immortalized MEF stably transfected with MycER (a gift from Drs. A T Tikhonenko and R. A. Amaravadi of University of Pennsylvania, Philadelphia, Pa.) were cultured in DMEM (Invitrogen), 10% FBS (Gemini Biosystems), 100 units/ml Penicillin, 100 ug/ml Streptomycin, 25 mM glucose, and 6 mM L-glutamine at 37° C. in a 5% CO2 incubator. […]

Structure (SMILES): O=c1[nH]c2ccccc2n1C1CCN(Cc2ccc(-c3nc4cc5[nH]cnc5cc4nc3-c3ccccc3)cc2)CC1 [AKT inhibitor VIII]
- ammonia production [1]: neither glutamine metabolism nor ammonia production was inhibited
- glucose metabolism (consumption) [1]: suppressed glucose metabolism and lactate production in a dose-dependent fashion
- glutamine metabolism (consumption) [1]: neither glutamine metabolism nor ammonia production was inhibited
- lactate production [1]: suppressed glucose metabolism and lactate production in a dose-dependent fashion

Structure (SMILES): NOCC(=O)O [AOA, aminooxyacetate]
- cell viability of cells transduced with MYC-shRNA [2]: without affecting the viability
- lowest dose that killed a significant fraction of the cells [3]: 500 µM
- cell viability / death of cells transduced with control shRNA ([4]; 500 μM AOA, 24 h, trypan blue dye exclusion): selectively induced the death

Structure (SMILES): COC(=O)CCC(=O)C(=O)OC [dimethyl α-ketoglutarate]
- cell death in glutamine-deficient medium [5]: suppressed the cell death
- reversal of AOA-induced toxicity (death) ([4]; 7 mM dimethyl α-ketoglutarate added to AOA-treated SF188 parental and control transduced cells): completely suppressed the death
